The results in this text go back to patent US20240043404A1 (AbbVie Inc., priority 2009, published 2024).

Where only a bound is given, the exact number is not on record here.

The subject of one test is RS4;11 cells. The experiment in a line: RS4;11 cell viability assay (CellTiter Glo).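 Also: acute lymphoblastic leukemia line RS4,11, EC50 derived from percentage of viable cells after treatment relative to untreated controls, cell killing taken as a measure of Bcl-2 inhibition.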 It is filed as cell-based, human. To be noted: 50,000 cells per well, 10% human serum, 48 hours; read-out: RS4; 11 EC50 Values. On the technique in general: Cellular ATP, detected with luciferase, serves as a proxy for viable cell number.
Method: The acute lymphoblastic leukemia (ALL) cell line RS4;11 was used as the primary human cell line to assess the cellular activity of Bcl-2 selective agents in vitro and their efficacy in vivo.
Cell cytotoxicity EC50 values were assessed using CellTiter Glo (Promega) according to the manufacturer's recommendations. The EC50 values were determined as a percentage of viable cells following treatment compared to the untreated control cells.
`CC1(C)CCC(CN2CCN(c3ccc(C(=O)NS(=O)(=O)c4ccc(NC[C@H]5CC[C@](C)(O)CC5)c([N+](=O)[O-])c4)c(Oc4cnc5[nH]ccc5c4)c3)CC2)=C(c2ccc(Cl)cc2)C1` [Example 338, 4-(4-{[2-(4-chlorophenyl)-4,4-dimethylcyclohex-1-en-1-yl]methyl}piperazin-1-yl)-N-[(4-{[(cis-4-hydroxy-4-methylcyclohexyl)methyl]amino}-3-nitrophenyl)sulfonyl]-2-(1H-pyrrolo[2,3-b]pyridin-5-yloxy)benzamide]: the EC50 is 3.4 nM.

Still in this test, the particulars now being: Homo sapiens, RS4-11, 48 h, 50,000 cells per well, 10% human serum, 48 hours; read-out: RS4; 11 EC50 Values.
Regarding `O=C(NS(=O)(=O)c1ccc(NCC2CCOCC2)c([N+](=O)[O-])c1)c1ccc(N2CCN(CC3=C(c4ccc(Cl)cc4)CCC(F)(F)C3)CC2)cc1Oc1cnc2[nH]ccc2c1` [Example 321, 4-(4-{[2-(4-chlorophenyl)-5,5-difluorocyclohex-1-en-1-yl]methyl}piperazin-1-yl)-N-({3-nitro-4-[(tetrahydro-2H-pyran-4-ylmethyl)amino]phenyl}sulfonyl)-2-(1H-pyrrolo[2,3-b]pyridin-5-yloxy)benzamide], the EC50 stood at 18.8 nM.

Turning to `CC1(C)CCC(CN2CCN(c3ccc(C(=O)NS(=O)(=O)c4ccc(OCC5(F)CCN(C6COC6)CC5)c(Cl)c4)c(Oc4cnc5[nH]ccc5c4)c3)CC2)=C(c2ccc(Cl)cc2)C1` [Example 322, N-[(3-chloro-4-{[4-fluoro-1-(oxetan-3-yl)piperidin-4-yl]methoxy}phenyl)sulfonyl]-4-(4-{[2-(4-chlorophenyl)-4,4-dimethylcyclohex-1-en-1-yl]methyl}piperazin-1-yl)-2-(1H-pyrrolo[2,3-b]pyridin-5-yloxy)benzamide], the EC50 stood at 12.4 nM.

In the case of `CC1(C)CCC(CN2CCN(c3ccc(C(=O)NS(=O)(=O)c4ccc(OCC5CCOC5)c(Cl)c4)c(Oc4cnc5[nH]ccc5c4)c3)CC2)=C(c2ccc(Cl)cc2)C1` (stereo not drawn) [Example 323, 4-(4-{[2-(4-chlorophenyl)-4,4-dimethylcyclohex-1-en-1-yl]methyl}piperazin-1-yl)-N-{[3-chloro-4-(tetrahydrofuran-3-ylmethoxy)phenyl]sulfonyl}-2-(1H-pyrrolo[2,3-b]pyridin-5-yloxy)benzamide], the EC50 is 717 nM.

Take `O=C(NS(=O)(=O)c1ccc(NC[C@H]2CC[C@H](O)CC2)c([N+](=O)[O-])c1)c1ccc(N2CCN(CC3=C(c4ccc(Cl)cc4)CCC(F)(F)C3)CC2)cc1Oc1cnc2[nH]ccc2c1` [Example 324, 4-(4-{[2-(4-chlorophenyl)-5,5-difluorocyclohex-1-en-1-yl]methyl}piperazin-1-yl)-N-[(4-{[(trans-4-hydroxycyclohexyl)methyl]amino}-3-nitrophenyl)sulfonyl]-2-(1H-pyrrolo[2,3-b]pyridin-5-yloxy)benzamide]: the EC50 turned out to be 4.53 nM.

Regarding `O=C(NS(=O)(=O)c1ccc(OCC2(F)CCOCC2)c(Cl)c1)c1ccc(N2CCN(CC3=C(c4ccc(Cl)cc4)CCC4(CCN(C5COC5)CC4)C3)CC2)cc1Oc1cnc2[nH]ccc2c1` [Example 325, N-({3-chloro-4-[(4-fluorotetrahydro-2H-pyran-4-yl)methoxy]phenyl}sulfonyl)-4-(4-{[9-(4-chlorophenyl)-3-(oxetan-3-yl)-3-azaspiro[5.5]undec-8-en-8-yl]methyl}piperazin-1-yl)-2-(1H-pyrrolo[2,3-b]pyridin-5-yloxy)benzamide], the EC50 stood at 12.3 nM.

For the molecule `CC1(C)CCC(CN2CCN(c3ccc(C(=O)NS(=O)(=O)c4ccc(NC[C@@H]5CN(C6CC6)CCO5)c([N+](=O)[O-])c4)c(Oc4cnc5[nH]ccc5c4)c3)CC2)=C(c2ccc(Cl)cc2)C1` [Example 326, 4-(4-{[2-(4-chlorophenyl)-4,4-dimethylcyclohex-1-en-1-yl]methyl}piperazin-1-yl)-N-{[4-({[(2R)-4-cyclopropylmorpholin-2-yl]methyl}amino)-3-nitrophenyl]sulfonyl}-2-(1H-pyrrolo[2,3-b]pyridin-5-yloxy)benzamide], the EC50 was determined as 23.1 nM.

As for `CC1(C)CCC(CN2CCN(c3ccc(C(=O)NS(=O)(=O)c4ccc(NC[C@H]5CN(C6CC6)CCO5)c([N+](=O)[O-])c4)c(Oc4cnc5[nH]ccc5c4)c3)CC2)=C(c2ccc(Cl)cc2)C1` [Example 327, 4-(4-{[2-(4-chlorophenyl)-4,4-dimethylcyclohex-1-en-1-yl]methyl}piperazin-1-yl)-N-{[4-({[(2S)-4-cyclopropylmorpholin-2-yl]methyl}amino)-3-nitrophenyl]sulfonyl}-2-(1H-pyrrolo[2,3-b]pyridin-5-yloxy)benzamide], the EC50 was determined as 2.72 nM.

As for `O=C(NS(=O)(=O)c1ccc(NCC2CCOCC2)c([N+](=O)[O-])c1)c1ccc(N2CCN(CC3=C(c4ccc(Cl)cc4)CC4(CC3)CC4)CC2)cc1Oc1cnc2[nH]ccc2c1` [Example 328, 4-(4-{[5-(4-chlorophenyl)spiro[2.5]oct-5-en-6-yl]methyl}piperazin-1-yl)-N-({3-nitro-4-[(tetrahydro-2H-pyran-4-ylmethyl)amino]phenyl}sulfonyl)-2-(1H-pyrrolo[2,3-b]pyridin-5-yloxy)benzamide], the EC50 amounted to 9.88 nM.

Take `CC1(C)CCC(CN2CCN(c3ccc(C(=O)NS(=O)(=O)c4cnc(OCC5CCC(N(C6CC6)C6COC6)CC5)c(Cl)c4)c(Oc4cnc5[nH]ccc5c4)c3)CC2)=C(c2ccc(Cl)cc2)C1` (stereo not drawn) [Example 329, N-{[5-chloro-6-({4-[cyclopropyl(oxetan-3-yl)amino]cyclohexyl}methoxy)pyridin-3-yl]sulfonyl}-4-(4-{[2-(4-chlorophenyl)-4,4-dimethylcyclohex-1-en-1-yl]methyl}piperazin-1-yl)-2-(1H-pyrrolo[2,3-b]pyridin-5-yloxy)benzamide]: the EC50 came to 424 nM.

Consider `O=C(NS(=O)(=O)c1ccc(NCC2CN(C3CC3)CCO2)c([N+](=O)[O-])c1)c1ccc(N2CCN(CC3=C(c4ccc(Cl)cc4)CC4(CC3)CC4)CC2)cc1Oc1cnc2[nH]ccc2c1` (stereo not drawn) [Example 330, 4-(4-{[5-(4-chlorophenyl)spiro[2.5]oct-5-en-6-yl]methyl}piperazin-1-yl)-N-[(4-{[(4-cyclopropylmorpholin-2-yl)methyl]amino}-3-nitrophenyl)sulfonyl]-2-(1H-pyrrolo[2,3-b]pyridin-5-yloxy)benzamide], for which the EC50 is 9.78 nM.

Consider `CC1(C)CCC(CN2CCN(c3ccc(C(=O)NS(=O)(=O)c4ccc(OCC5CN(C6CC6)CCO5)c(Cl)c4)c(Oc4cnc5[nH]ccc5c4)c3)CC2)=C(c2ccc(Cl)cc2)C1` (stereo not drawn) [Example 331, N-({3-chloro-4-[(4-cyclopropylmorpholin-2-yl)methoxy]phenyl}sulfonyl)-4-(4-{[2-(4-chlorophenyl)-4,4-dimethylcyclohex-1-en-1-yl]methyl}piperazin-1-yl)-2-(1H-pyrrolo[2,3-b]pyridin-5-yloxy)benzamide], for which the EC50 stood at 926 nM.

Consider `CC1(C)CCC(CN2CCN(c3ccc(C(=O)NS(=O)(=O)c4ccc(NCC5CN(C6CC6)CCO5)c(Cl)c4)c(Oc4cnc5[nH]ccc5c4)c3)CC2)=C(c2ccc(Cl)cc2)C1` (stereo not drawn) [Example 332, N-[(3-chloro-4-{[(4-cyclopropylmorpholin-2-yl)methyl]amino}phenyl)sulfonyl]-4-(4-{[2-(4-chlorophenyl)-4,4-dimethylcyclohex-1-en-1-yl]methyl}piperazin-1-yl)-2-(1H-pyrrolo[2,3-b]pyridin-5-yloxy)benzamide], for which the EC50 worked out at 457 nM.

Turning to `CCN(C)C(=O)N1CCOC(CNc2ccc(S(=O)(=O)NC(=O)c3ccc(N4CCN(CC5=C(c6ccc(Cl)cc6)CC(C)(C)CC5)CC4)cc3Oc3cnc4[nH]ccc4c3)cc2Cl)C1` (stereo not drawn) [Example 333, 2-{[(2-chloro-4-{[4-(4-{[2-(4-chlorophenyl)-4,4-dimethylcyclohex-1-en-1-yl]methyl}piperazin-1-yl)-2-(1H-pyrrolo[2,3-b]pyridin-5-yloxy)benzoyl]sulfamoyl}phenyl)amino]methyl}-N-ethyl-N-methylmorpholine-4-carboxamide], the EC50 was found to be 463 nM.

As for `CCN(C)C(=O)N1CCO[C@H](COc2ncc(S(=O)(=O)NC(=O)c3ccc(N4CCN(CC5=C(c6ccc(Cl)cc6)CC(C)(C)CC5)CC4)cc3Oc3cnc4[nH]ccc4c3)cc2Cl)C1` [Example 334, (2S)-2-{[(3-chloro-5-{[4-(4-{[2-(4-chlorophenyl)-4,4-dimethylcyclohex-1-en-1-yl]methyl}piperazin-1-yl)-2-(1H-pyrrolo[2,3-b]pyridin-5-yloxy)benzoyl]sulfamoyl}pyridin-2-yl)oxy]methyl}-N-ethyl-N-methylmorpholine-4-carboxamide], the EC50 is above 1000 nM.

For `CC1(C)CCC(CN2CCN(c3ccc(C(=O)NS(=O)(=O)c4cnc(NCC5CN(C6CC6)CCO5)c(Cl)c4)c(Oc4cnc5[nH]ccc5c4)c3)CC2)=C(c2ccc(Cl)cc2)C1` (stereo not drawn) [Example 335, N-[(5-chloro-6-{[(4-cyclopropylmorpholin-2-yl)methyl]amino}pyridin-3-yl)sulfonyl]-4-(4-{[2-(4-chlorophenyl)-4,4-dimethylcyclohex-1-en-1-yl]methyl}piperazin-1-yl)-2-(1H-pyrrolo[2,3-b]pyridin-5-yloxy)benzamide], the EC50 was found to be 270 nM.

Regarding `CCN(C)C(=O)N1CCOC(CNc2ncc(S(=O)(=O)NC(=O)c3ccc(N4CCN(CC5=C(c6ccc(Cl)cc6)CC(C)(C)CC5)CC4)cc3Oc3cnc4[nH]ccc4c3)cc2Cl)C1` (stereo not drawn) [Example 336, 2-{[(3-chloro-5-{[4-(4-{[2-(4-chlorophenyl)-4,4-dimethylcyclohex-1-en-1-yl]methyl}piperazin-1-yl)-2-(1H-pyrrolo[2,3-b]pyridin-5-yloxy)benzoyl]sulfamoyl}pyridin-2-yl)amino]methyl}-N-ethyl-N-methylmorpholine-4-carboxamide], the EC50 is 351 nM.

On to `CC1(C)CCC(CN2CCN(c3ccc(C(=O)NS(=O)(=O)c4cnc(OC[C@@H]5C[C@H]6C[C@@H]5C[C@@]6(C)O)c(Cl)c4)c(Oc4cnc5[nH]ccc5c4)c3)CC2)=C(c2ccc(Cl)cc2)C1` [Example 339, N-[(5-chloro-6-{[(1R,2R,4R,5R)-5-hydroxy-5-methylbicyclo[2.2.1]hept-2-yl]methoxy}pyridin-3-yl)sulfonyl]-4-(4-{[2-(4-chlorophenyl)-4,4-dimethylcyclohex-1-en-1-yl]methyl}piperazin-1-yl)-2-(1H-pyrrolo[2,3-b]pyridin-5-yloxy)benzamide], for which the EC50 came to 450 nM.
